Measurements taken from patent US20050112573A1, “Method of detecting toxic substance” (priority 2001, published 2005).

Test system: yeast genes (level of expressed mRNA)
Assay: DNA chip analysis of expressed mRNA of yeast genes after 2 h culture with a toxic chemical substance
Format: cell-based, Saccharomyces cerevisiae S288C
How it was run: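 Values are treated-to-control fluorescence ratios from a whole-yeast-genome DNA chip (65° C, over 12 h hybridization) using Cy3/Cy5-labelled cDNA from mRNA. Log-phase S288C cells in YPD at 25° C were exposed 2 h to a toxicant at sublethal, growth-inhibiting concentration.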

manganese ethylenebis(dithiocarbamate) [(8)]
5.8: The level of expressed mRNA in the presence of chemical substance/The level of expressed mRNA in the absence of chemical substance (yeast gene YDL238C)
1.2: The level of expressed mRNA in the presence of chemical substance/ (yeast gene YBL048W, ratio to control without chemical substance, 2 h culture) | The level of expressed mRNA in the presence of chemical substance/The level of expressed mRNA in the absence of chemical substance (yeast gene YCR004C) | The level of expressed mRNA in the presence of chemical substance/The level of expressed mRNA in the absence of chemical substance (yeast gene YDL008W) | The level of expressed mRNA in the presence of chemical substance/The level of expressed mRNA in the absence of chemical substance (yeast gene YDR358W) | The level of expressed mRNA in the presence of chemical substance/ (yeast gene YEL001C, ratio to control without chemical) | The level of expressed mRNA in the presence of chemical substance/ (yeast gene YER035W, ratio to control without chemical substance, 2 h culture) | The level of expressed mRNA in the presence of chemical substance/ (yeast gene YER106W, ratio to control without chemical) | The level of expressed mRNA in the presence of chemical substance/The level of expressed mRNA in the absence of chemical substance (yeast gene YER130C)
1.1: The level of expressed mRNA in the presence of chemical substance/ (yeast gene YDL204W, ratio to control without chemical) | The level of expressed mRNA in the presence of chemical substance/in the absence of chemical substance (yeast gene YDL215C) | The level of expressed mRNA in the presence of chemical substance/ (yeast gene YDR330W, ratio to control without chemical substance, 2 h culture) | The level of expressed mRNA in the presence of chemical substance/ (yeast gene YER004W, ratio to control without chemical substance, 2 h culture) | The level of expressed mRNA in the presence of chemical substance/ (yeast gene YER175C, ratio to control without chemical substance, 2 h culture)
0.5: The level of expressed mRNA in the presence of chemical substance/in the absence of chemical substance (yeast gene YBR298C) | The level of expressed mRNA in the presence of chemical substance/The level of expressed mRNA in the absence of chemical substance (yeast gene YCR088W) | The level of expressed mRNA in the presence of chemical substance/The level of expressed mRNA in the absence of chemical substance (yeast gene YDR432W)
0.7: The level of expressed mRNA in the presence of chemical substance/in the absence of chemical substance (yeast gene YBR036C) | The level of expressed mRNA in the presence of chemical substance/The level of expressed mRNA in the absence of chemical substance (yeast gene YBR214W) | The level of expressed mRNA in the presence of chemical substance/ (yeast gene YDL222C, ratio to control without chemical) | The level of expressed mRNA in the presence of chemical substance/The level of expressed mRNA in the absence of chemical substance (yeast gene YDR084C) | The level of expressed mRNA in the presence of chemical substance/in the absence of chemical substance (yeast gene YDR387C) | The level of expressed mRNA in the presence of chemical substance/The level of expressed mRNA in the absence of chemical substance (yeast gene YEL042W) | The level of expressed mRNA in the presence of chemical substance/The level of expressed mRNA in the absence of chemical substance (yeast gene YER039C)
0.6: The level of expressed mRNA in the presence of chemical substance/The level of expressed mRNA in the absence of chemical substance (yeast gene YCL027W) | The level of expressed mRNA in the presence of chemical substance/ (yeast gene YDR545W, ratio to control without chemical substance, 2 h culture)
0.8: The level of expressed mRNA in the presence of chemical substance/ (yeast gene YAL053W, ratio to control without chemical) | The level of expressed mRNA in the presence of chemical substance/ (yeast gene YDL072C, ratio to control without chemical) | The level of expressed mRNA in the presence of chemical substance/The level of expressed mRNA in the absence of chemical substance (yeast gene YDR388W) | The level of expressed mRNA in the presence of chemical substance/The level of expressed mRNA in the absence of chemical substance (yeast gene YER107C)
1.6: The level of expressed mRNA in the presence of chemical substance/The level of expressed mRNA in the absence of chemical substance (yeast gene YBL078C) | The level of expressed mRNA in the presence of chemical substance/The level of expressed mRNA in the absence of chemical substance (yeast gene YDR055W)
1.0: The level of expressed mRNA in the presence of chemical substance/The level of expressed mRNA in the absence of chemical substance (yeast gene YBL005W-A) | The level of expressed mRNA in the presence of chemical substance/in the absence of chemical substance (yeast gene YDL078C) | The level of expressed mRNA in the presence of chemical substance/The level of expressed mRNA in the absence of chemical substance (yeast gene YDR481C) | The level of expressed mRNA in the presence of chemical substance/ (yeast gene YFL006W, ratio to control without chemical substance, 2 h culture)
1.9: The level of expressed mRNA in the presence of chemical substance/ (yeast gene YBL107C, ratio to control without chemical substance, 2 h culture)
1.4: The level of expressed mRNA in the presence of chemical substance/The level of expressed mRNA in the absence of chemical substance (yeast gene YDR259C) | The level of expressed mRNA in the presence of chemical substance/The level of expressed mRNA in the absence of chemical substance (yeast gene YDR315C) | The level of expressed mRNA in the presence of chemical substance/The level of expressed mRNA in the absence of chemical substance (yeast gene YEL066W) | The level of expressed mRNA in the presence of chemical substance/ (yeast gene YER079W, ratio to control without chemical substance, 2 h culture) | The level of expressed mRNA in the presence of chemical substance/ (yeast gene YER163C, ratio to control without chemical substance, 2 h culture)
1.7: The level of expressed mRNA in the presence of chemical substance/The level of expressed mRNA in the absence of chemical substance (yeast gene YBL041W) | The level of expressed mRNA in the presence of chemical substance/The level of expressed mRNA in the absence of chemical substance (yeast gene YCL020W) | The level of expressed mRNA in the presence of chemical substance/ (yeast gene YDR511W, ratio to control without chemical substance, 2 h culture)
2.1: The level of expressed mRNA in the presence of chemical substance/The level of expressed mRNA in the absence of chemical substance (yeast gene YBL043W)
1.3: The level of expressed mRNA in the presence of chemical substance/The level of expressed mRNA in the absence of chemical substance (yeast gene YAR010C) | The level of expressed mRNA in the presence of chemical substance/The level of expressed mRNA in the absence of chemical substance (yeast gene YDR104C) | The level of expressed mRNA in the presence of chemical substance/The level of expressed mRNA in the absence of chemical substance (yeast gene YDR115W)
0.9: The level of expressed mRNA in the presence of chemical substance/The level of expressed mRNA in the absence of chemical substance (yeast gene YCR071C) | The level of expressed mRNA in the presence of chemical substance/ (yeast gene YDR411C, ratio to control without chemical substance, 2 h culture) | The level of expressed mRNA in the presence of chemical substance/ (yeast gene YER158C, ratio to control without chemical substance, 2 h culture)
1.5: The level of expressed mRNA in the presence of chemical substance/in the absence of chemical substance (yeast gene YDR297W) | The level of expressed mRNA in the presence of chemical substance/The level of expressed mRNA in the absence of chemical substance (yeast gene YDR510W)
2.0: The level of expressed mRNA in the presence of chemical substance/The level of expressed mRNA in the absence of chemical substance (yeast gene YDR085C)
